For 5 molecules, MIC results are on record in DBAASP.

Some test systems named below: Bacillus cereus AS1.1846; Pseudomonas aeruginosa; Staphylococcus aureus; Bacillus subtilis; Salmonella typhimurium; Trichosporon beigelii; Fusarium verticillioides; Proteus vulgaris; Escherichia coli; Saccharomyces cerevisiae; Botrytis cinerea.
Common to all, as to experiment: ≥ marks a high value that may be exact or a test limit, other limits are often not marked, values filed in µg/mL are converted to µM
Experiment [1] deals with Listeria monocytogenes ATCC 19114.
The test system of experiment [2] is Staphylococcus aureus ATCC 25923.
Experiment [3] concerns Escherichia coli ATCC 25922.
The subject of experiment [4] is Candida albicans NCTC 3179.
Experiment [5] deals with Escherichia coli ATCC 11775.
The subject of experiment [6] is Salmonella enterica subsp. enterica serovar Typhimurium ATCC 14028.
In experiment [7] the test system is Escherichia coli ATCC 35218.
Experiment [8] relates to Salmonella enterica subsp. enterica serovar Typhi Vi+.
Experiment [9] relates to Escherichia coli K-12 594.
In experiment [10] the test system is Staphylococcus aureus ATCC 6538P.
Experiment [11] deals with Staphylococcus aureus SR1550.
The test system of experiment [12] is Aspergillus flavus KCTC 9471.
Experiment [13] has as its system Candida albicans KCTC 7270.
In experiment [14] the test system is Aspergillus fumigatus KCTC 6145.
Experiment [15] relates to Escherichia coli O157:H7 ATCC 43895.
The subject of experiment [16] is Staphylococcus epidermidis.
For experiment [17], the system named is Listeria monocytogenes KCTC 3710.

≈ marks a conversion by molar mass, not a printed value. Bounds are passed on as bounds.

By MIC is commonly meant the least concentration at which growth counts as inhibited. In the case of `CC(C)[C@H](N)C(=O)N[C@@H](CO)C(=O)NCC(=O)N1CCC[C@H]1C(=O)N[C@@H](C)C(=O)NCC(=O)N1CCC[C@H]1C(=O)N1CCC[C@H]1C(=O)NCC(=O)N[C@H](C(=O)N[C@@H](Cc1cnc[nH]1)C(=O)O)[C@@H](C)O` [VSGPAGPPGTH], the MIC (in [1]; against Bacillus cereus AS1.1846) was 16.4 µM (≈ 16 µg/mL) each time.

For the molecule `CC[C@H](C)[C@H](NC(=O)[C@H](CCCCN)NC(=O)[C@@H](NC(=O)[C@@H](NC(=O)[C@H](CO)NC(=O)[C@H](CC(=O)O)NC(=O)[C@@H](NC(=O)[C@H](CC(N)=O)NC(=O)[C@@H](N)CC(=O)O)[C@@H](C)O)C(C)C)C(C)C)C(=O)N[C@@H](CCC(N)=O)C(=O)N[C@@H](CO)C(=O)N[C@@H](Cc1c[nH]c2ccccc12)C(=O)N[C@@H](Cc1ccccc1)C(=O)N[C@@H](CCCN=C(N)N)C(=O)N[C@@H](CCSC)C(=O)N[C@@H](C)C(=O)N[C@H](C(=O)N[C@@H](C)C(=O)N[C@@H](CCCN=C(N)N)C(=O)N[C@@H](CCCCN)C(=O)N[C@@H](CO)C(=O)N[C@@H](Cc1ccc(O)cc1)C(=O)N[C@@H](CC(C)C)C(=O)O)[C@@H](C)O` [DNTDSVVKIQSWFRMATARKSYL], the MIC came to 26.5 µM (≈ 72 µg/mL) in experiment [2], 1.25 µM (≈ 3.4 µg/mL) in experiment [3] and 25.8 µM (≈ 70 µg/mL) in experiment [4].

For `CC[C@H](C)[C@H](NC(=O)[C@@H]1CCCN1C(=O)[C@H](CCCN=C(N)N)NC(=O)[C@@H]1CCCN1C(=O)[C@H](Cc1cnc[nH]1)NC(=O)[C@@H]1CCCN1C(=O)[C@@H]1CCCN1C(=O)[C@@H]1CCCN1C(=O)[C@H](CCCN=C(N)N)NC(=O)[C@@H]1CCCN1C(=O)[C@@H]1CCCN1C(=O)[C@H](Cc1ccc(O)cc1)NC(=O)[C@@H]1CCCN1C(=O)[C@H](CCCN=C(N)N)NC(=O)[C@@H]1CCCN1C(=O)[C@H](CCCCN)NC(=O)CN)C(=O)N[C@@H](CCCN=C(N)N)C(=O)N[C@H](C(=O)O)C(C)C` [GKPRPYPPRPPPHPRPIRV], the minimal inhibitory concentration (MIC) in [5] was 0.3 µM (≈ 0.664 µg/mL); in [6], 0.6 µM (≈ 1.33 µg/mL); in experiment [7] it was 0.2 µM (≈ 0.443 µg/mL); in [8], 0.6 µM (≈ 1.33 µg/mL); in [3], 0.3 µM (≈ 0.664 µg/mL).

Regarding `CC(C)C[C@H](NC(=O)[C@H](CC(C)C)NC(=O)[C@H](CC(C)C)NC(=O)[C@H](CC(C)C)NC(=O)[C@H](CC(C)C)NC(=O)[C@@H](N)CCCCN)C(=O)N[C@@H](CCCCN)C(N)=O` [KLLLLLK], the MIC is 29.8 µM (≈ 25 µg/mL) in experiment [9], 19 µM (≈ 16 µg/mL) in experiment [10] and not below 41.7 µM in experiment [11].

Consider `CC[C@H](C)[C@H](NC(=O)[C@H](CCCCN)NC(=O)[C@H](CO)NC(=O)[C@H](Cc1ccccc1)NC(=O)[C@H](CC(C)C)NC(=O)[C@H](CCCCN)NC(=O)[C@H](CCC(=O)O)NC(=O)[C@H](CC(C)C)NC(=O)[C@H](CCCN=C(N)N)NC(=O)[C@H](CCCCN)NC(=O)[C@H](Cc1ccccc1)NC(=O)[C@@H](NC(=O)[C@H](CCCCN)NC(=O)[C@H](CCCCN)NC(=O)[C@H](C)N)C(C)C)C(=O)N[C@@H](CCC(N)=O)C(=O)N[C@@H](CC(N)=O)C(=O)N[C@@H](Cc1c[nH]c2ccccc12)C(=O)N[C@@H](CCCCN)C(N)=O` [AKKVFKRLEKLFSKIQNWK], for which the MIC in experiment [12] was not below 50 µM; in the experiment with Pseudomonas aeruginosa, 3.13 µM (≈ 7.48 µg/mL); in the experiment on Staphylococcus aureus, 3.13 µM (≈ 7.48 µg/mL); against Bacillus subtilis it was 1.56 µM (≈ 3.73 µg/mL); against Salmonella typhimurium, 0.39 µM (≈ 0.932 µg/mL); in experiment [13] it was 25 µM (≈ 59.8 µg/mL). The minimum inhibitory concentration (MIC) is 1.56 µM (≈ 3.73 µg/mL) against Trichosporon beigelii; not below 50 µM in experiment [14]; 6.25 µM (≈ 14.9 µg/mL) in experiment [15]; 12.5 µM (≈ 29.9 µg/mL) against Fusarium verticillioides; 3.13 µM (≈ 7.48 µg/mL) in the experiment on Proteus vulgaris; 3.13 µM (≈ 7.48 µg/mL) in [16]. Besides, the minimal inhibitory concentration (MIC) in the experiment with Escherichia coli turned out to be 0.78 µM (≈ 1.86 µg/mL); against Saccharomyces cerevisiae, 25 µM (≈ 59.8 µg/mL); against Botrytis cinerea, 6.25 µM (≈ 14.9 µg/mL); in [17] it was 0.78 µM (≈ 1.86 µg/mL).
